PubChem BioAssay AID248 (DTP/NCI, 2004)
Values joined by “and” are separate entries in the source; they are usually repeats but may differ in a detail not shown here. Equal values may be shown once. Toxic doses and inconclusive results are not listed. Rule as the data show it: active = T/C of 150% or more; inactive = T/C below 125%.

System: L1210 leukemia ip in BDF1 mice, survival T/C
Assay: NCI In Vivo Anticancer Drug Screen. Data for tumor model L1210 Leukemia (intraperitoneal) in B6D2F1 (BDF1) mice
Details: higher = longer survival
Method in brief: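 Ratio derived from survival: compound-dosed mice over vehicle-dosed mice, all bearing a transplantable tumor.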

[1] = endpoint: mean survival time, dose: 100.0 mg/kg/injection, schedule: Q04DX003 (ip), vehicle: Klucel (hydroxypropylcellulose) (HPC)
[2] = endpoint: mean survival time, dose: 200.0 mg/kg/injection, schedule: Q04DX003 (ip), vehicle: Klucel (hydroxypropylcellulose) (HPC)
[3] = endpoint: mean survival time, dose: 100.0 mg/kg/injection, schedule: Q04DX002 (ip), vehicle: saline with Tween-80
[4] = endpoint: mean survival time, dose: 200.0 mg/kg/injection, schedule: Q04DX002 (ip), vehicle: saline with Tween-80
[5] = endpoint: mean survival time, dose: 400.0 mg/kg/injection, schedule: Q04DX002 (ip), vehicle: saline with Tween-80
[6] = endpoint: mean survival time, dose: 400.0 mg/kg/injection, schedule: Q04DX003 (ip), vehicle: Klucel (hydroxypropylcellulose) (HPC)
[7] = endpoint: mean survival time, dose: 100.0 mg/kg/injection, schedule: Q04DX002 (ip), vehicle: saline
[8] = endpoint: mean survival time, dose: 200.0 mg/kg/injection, schedule: Q04DX002 (ip), vehicle: saline
[9] = endpoint: mean survival time, dose: 100.0 mg/kg/injection, schedule: Q01DX001 (ip), vehicle: saline
[10] = endpoint: mean survival time, dose: 200.0 mg/kg/injection, schedule: Q01DX001 (ip), vehicle: saline
[11] = endpoint: mean survival time, dose: 400.0 mg/kg/injection, schedule: Q01DX001 (ip), vehicle: saline
[12] = endpoint: mean survival time, dose: 100.0 mg/kg/injection, schedule: Q01DX009 (ip), vehicle: Klucel (hydroxypropylcellulose) (HPC)
[13] = endpoint: mean survival time, dose: 100.0 mg/kg/injection, schedule: Q01DX009 (ip), vehicle: saline
[14] = endpoint: mean survival time, dose: 25.0 mg/kg/injection, schedule: Q01DX009 (ip), vehicle: saline

Measured: T/C

OC(c1cc(Nc2ccc(Cl)cc2)nc2ccccc12)C1CCCCN1 (configuration not stated)
inactive: [1] 95 % of control | [2] 101 % of control

CN(C)C=Nc1ncnc2nc[nH]c12
inactive: [3] 102 % of control | [4] 102 % of control | [5] 109 % of control

COc1ccc(C(C)(O)c2cnc(C)n2Cc2ccccc2)cc1 (configuration not stated)
inactive: [1] 99 % of control | [2] 97 % of control | [6] 95 % of control

CN(C(=O)c1ccc(Cl)c(Cl)c1)C(c1ccco1)P(=O)(c1ccccc1)c1ccccc1 (configuration not stated)
inactive: endpoint: mean survival time, dose: 100.0 mg/kg/injection, schedule: Q01DX009 (ip), vehicle: saline with Tween-80 90 % of control | [3] 96 % of control | endpoint: mean survival time, dose: 200.0 mg/kg/injection, schedule: Q01DX009 (ip), vehicle: saline with Tween-80 103 % of control | [4] 90 % of control | endpoint: mean survival time, dose: 400.0 mg/kg/injection, schedule: Q01DX009 (ip), vehicle: saline with Tween-80 93 % of control | [5] 93 % of control

CCCCCCCCCCCCCCCCOc1ccc(NC(N)=S)cc1
inactive: endpoint: mean survival time, dose: 75.0 mg/kg/injection, schedule: Q04DX003 (ip), vehicle: Klucel (hydroxypropylcellulose) (HPC) 101 % of control | endpoint: mean survival time, dose: 100.0 mg/kg/injection, schedule: Q01DX001 (ip), vehicle: Klucel (hydroxypropylcellulose) (HPC) 96 % of control | endpoint: mean survival time, dose: 150.0 mg/kg/injection, schedule: Q04DX003 (ip), vehicle: Klucel (hydroxypropylcellulose) (HPC) 88 % of control | endpoint: mean survival time, dose: 200.0 mg/kg/injection, schedule: Q01DX001 (ip), vehicle: Klucel (hydroxypropylcellulose) (HPC) 97 % of control | endpoint: mean survival time, dose: 300.0 mg/kg/injection, schedule: Q04DX003 (ip), vehicle: Klucel (hydroxypropylcellulose) (HPC) 89 % of control | endpoint: mean survival time, dose: 400.0 mg/kg/injection, schedule: Q01DX001 (ip), vehicle: Klucel (hydroxypropylcellulose) (HPC) 93 % of control

CCCCOCCOCCOC(OCCOCCOCCCC)c1ccc2c(c1)OCO2
inactive: [7] 88 % of control | [8] 92 % of control | endpoint: mean survival time, dose: 400.0 mg/kg/injection, schedule: Q04DX002 (ip), vehicle: saline 95 % of control

Nc1ccnc(C(F)(F)F)n1
inactive: endpoint: mean survival time, dose: 50.0 mg/kg/injection, schedule: Q01DX Z (ip), vehicle: methylcellulose (MC) 93 % of control | endpoint: mean survival time, dose: 100.0 mg/kg/injection, schedule: Q01DX Z (ip), vehicle: methylcellulose (MC) 90 % of control

O=C(Cc1ccccn1)NCC(O)c1ccccc1 (configuration not stated)
inactive: [9] 110 % of control | [10] 91 % of control | [11] 93 % of control

C#CCCCCCCCCC(=O)NCC
inactive: [12] 100 % of control | [1] 95 % of control | [2] 93 % of control | endpoint: mean survival time, dose: 400.0 mg/kg/injection, schedule: Q01DX009 (ip), vehicle: Klucel (hydroxypropylcellulose) (HPC) 104 % of control | [6] 108 % of control

O=C1NC(=O)C(c2ccc3c(c2)OCO3)N1 (configuration not stated)
inactive: endpoint: mean survival time, dose: 100.0 mg/kg/injection, schedule: Q04DX003 (ip), vehicle: saline with Tween-80 104 % of control | endpoint: mean survival time, dose: 200.0 mg/kg/injection, schedule: Q04DX003 (ip), vehicle: saline with Tween-80 102 % of control | endpoint: mean survival time, dose: 400.0 mg/kg/injection, schedule: Q04DX003 (ip), vehicle: saline with Tween-80 101 % of control

COc1cc([C@@H]2c3cc4c(c(O)c3C[C@H]3COC(=O)[C@@H]32)OCO4)cc(OC)c1OC
inactive: endpoint: mean survival time, dose: 0.06 mg/kg/injection, schedule: Q01DX Z (ip), vehicle: saline 100 % of control | endpoint: mean survival time, dose: 0.12 mg/kg/injection, schedule: Q01DX Z (ip), vehicle: saline 103 % of control | endpoint: mean survival time, dose: 0.25 mg/kg/injection, schedule: Q01DX Z (ip), vehicle: saline 113 % of control | endpoint: mean survival time, dose: 0.5 mg/kg/injection, schedule: Q01DX Z (ip), vehicle: saline 116 % of control | endpoint: mean survival time, dose: 1.0 mg/kg/injection, schedule: Q01DX Z (ip), vehicle: saline 99 % of control | endpoint: mean survival time, dose: 1.5 mg/kg/injection, schedule: Q01DX Z (ip), vehicle: saline 115 % of control | endpoint: mean survival time, dose: 2.25 mg/kg/injection, schedule: Q01DX Z (ip), vehicle: saline 108 % of control | endpoint: mean survival time, dose: 28.0 mg/kg/injection, schedule: Q01DX001 (ip), vehicle: saline 102 % of control | endpoint: mean survival time, dose: 45.0 mg/kg/injection, schedule: Q01DX001 (ip), vehicle: saline 122 % of control | endpoint: mean survival time, dose: 50.0 mg/kg/injection, schedule: Q01DX001 (ip), vehicle: saline 101 % of control | endpoint: mean survival time, dose: 65.0 mg/kg/injection, schedule: Q01DX001 (ip), vehicle: saline 111 % of control | [9] 112 % of control | [10] 112 % of control | [11] 117 % of control | endpoint: median survival time, dose: 0.25 mg/kg/injection, schedule: Q01DX009 (ip), vehicle: Klucel (hydroxypropylcellulose) (HPC) 100 % of control | endpoint: median survival time, dose: 0.5 mg/kg/injection, schedule: Q01DX009 (ip), vehicle: Klucel (hydroxypropylcellulose) (HPC) 100 % of control | endpoint: median survival time, dose: 1.0 mg/kg/injection, schedule: Q01DX009 (ip), vehicle: Klucel (hydroxypropylcellulose) (HPC) 100 % of control | endpoint: median survival time, dose: 2.0 mg/kg/injection, schedule: Q01DX009 (ip), vehicle: Klucel (hydroxypropylcellulose) (HPC) 100 % of control

O=C(N/C=C/NC(=O)OC(=O)C(Cl)(Cl)Cl)OC(=O)C(Cl)(Cl)Cl
inactive: endpoint: mean survival time, dose: 100.0 mg/kg/injection, schedule: Q04DX003 (ip), vehicle: saline 92 % of control | endpoint: mean survival time, dose: 200.0 mg/kg/injection, schedule: Q04DX003 (ip), vehicle: saline 88 % of control | endpoint: mean survival time, dose: 400.0 mg/kg/injection, schedule: Q04DX003 (ip), vehicle: saline 93 % of control

COc1ccc(C(=O)NO)cc1
inactive: endpoint: mean survival time, dose: 100.0 mg/kg/injection, schedule: Q01DX009 (ip), vehicle: carboxymethylcellulose (CMC) 96 % of control | endpoint: mean survival time, dose: 200.0 mg/kg/injection, schedule: Q01DX009 (ip), vehicle: carboxymethylcellulose (CMC) 102 % of control | endpoint: mean survival time, dose: 400.0 mg/kg/injection, schedule: Q01DX009 (ip), vehicle: carboxymethylcellulose (CMC) 101 % of control

CC1=C(C(=O)O)C(C)CC(=O)N1c1ccccc1 (configuration not stated)
inactive: endpoint: mean survival time, dose: 50.0 mg/kg/injection, schedule: Q01DX001 (ip), vehicle: carboxymethylcellulose (CMC) 102 % of control | endpoint: mean survival time, dose: 100.0 mg/kg/injection, schedule: Q01DX001 (ip), vehicle: carboxymethylcellulose (CMC) 96 % of control | endpoint: mean survival time, dose: 200.0 mg/kg/injection, schedule: Q01DX001 (ip), vehicle: carboxymethylcellulose (CMC) 93 % of control | endpoint: mean survival time, dose: 400.0 mg/kg/injection, schedule: Q01DX001 (ip), vehicle: carboxymethylcellulose (CMC) 96 % of control

Cc1ccc(S(=O)(=O)N2CCC(Br)(Br)C(=O)c3ccccc32)cc1
inactive: [13] 97 % of control | endpoint: mean survival time, dose: 200.0 mg/kg/injection, schedule: Q01DX009 (ip), vehicle: saline 100 % of control | endpoint: mean survival time, dose: 400.0 mg/kg/injection, schedule: Q01DX009 (ip), vehicle: saline 102 % of control

O=C(c1cc(C(F)(F)F)cc(C(F)(F)F)c1)N1CC1
inactive: endpoint: mean survival time, dose: 6.25 mg/kg/injection, schedule: Q01DX009 (ip), vehicle: water 96 % of control | endpoint: mean survival time, dose: 12.5 mg/kg/injection, schedule: Q01DX009 (ip), vehicle: water 91 % of control | endpoint: mean survival time, dose: 25.0 mg/kg/injection, schedule: Q01DX009 (ip), vehicle: water 95 % of control | endpoint: mean survival time, dose: 50.0 mg/kg/injection, schedule: Q01DX009 (ip), vehicle: water 93 % of control and 86 % of control | endpoint: mean survival time, dose: 100.0 mg/kg/injection, schedule: Q01DX009 (ip), vehicle: water 88 % of control | endpoint: mean survival time, dose: 200.0 mg/kg/injection, schedule: Q01DX009 (ip), vehicle: water 95 % of control and 89 % of control | endpoint: mean survival time, dose: 400.0 mg/kg/injection, schedule: Q01DX009 (ip), vehicle: water 86 % of control

COC12C[C@]34CCCN3CC(O1)c1cc3c(cc1[C@@H]4[C@@H]2O)OCO3
inactive: [14] 105 % of control | endpoint: mean survival time, dose: 50.0 mg/kg/injection, schedule: Q01DX009 (ip), vehicle: saline 112 % of control

CCCCCCCCCCCCCCCC1=NN(c2ccccc2)C(=O)C1NC(=O)O (configuration not stated)
inactive: [1] 107 % of control | [2] 97 % of control | [6] 98 % of control

NCCSC1CCCCC1
inactive: [7] 110 % of control | [8] 94 % of control

CC1(C)OC2COC(c3[nH]nc4c(=O)[nH]c(=O)[nH]c34)C2O1 (configuration not stated)
inactive: [14] 96 % of control | endpoint: mean survival time, dose: 100.0 mg/kg/injection, schedule: Q01DX005 (ip), vehicle: saline 101 % of control
active: [13] 188 % of control

COc1ccc([N+](=O)[O-])cc1NC(=O)Nc1ccc(N(C)C(C)=O)cc1
inactive: endpoint: mean survival time, dose: 50.0 mg/kg/injection, schedule: Q01DX009 (ip), vehicle: Klucel (hydroxypropylcellulose) (HPC) 105 % of control | [12] 111 % of control | endpoint: mean survival time, dose: 200.0 mg/kg/injection, schedule: Q01DX009 (ip), vehicle: Klucel (hydroxypropylcellulose) (HPC) 101 % of control
